ChEMBL document CHEMBL1155668, “A new depsipeptide from the sacoglossan mollusk Elysia ornata and the green alga Bryopsis species” (J Nat Prod, 2000)
Active and inactive are the calls of the source.

Assays:
Format in all cases: functional, cell-based
A549 = test: Growth inhibition of human A549 cells at 10 ug/mL
HT-29 = test: Growth inhibition of human HT29 cells at 10 ug/mL
MEL28 = test: Growth inhibition of human MEL28 cells at 10 ug/mL
P388 = test: Growth inhibition of mouse P388 cells at 10 ug/mL

Measured: Activity

CC[C@H](C)[C@@H]1NC(=O)[C@H]([C@@H](C)O)NC(=O)[C@@H](Cc2c[nH]c3ccccc23)NC(=O)[C@@H](Cc2ccc(O)cc2)NC(=O)[C@@H](NC(=O)CNC(=O)CCCC(C)C)[C@@H](C)OC(=O)[C@H](C(C)C)NC1=O
inactive: A549 | HT-29 | MEL28 | P388
